Laboratory results reported in PubChem BioAssay (NCI).
Values joined by “and” are separate entries in the source; they are usually repeats but may differ in a detail not shown here. Equal values may be shown once.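 1) Cells in 96-well plates. 2) Compound, 48 h, 5 concentrations. 3) Linear interpolation between surrounding doses. 4) Unreached endpoint = highest concentration. GI50 marks 50% less growth. TGI: concentration producing complete growth inhibition.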

How the values were obtained:
Test in all cases: DTP human tumour cell line panel, 48 h
MOLT-4 leukemia = tested on: MOLT-4 leukemia
SK-MEL-2 melanoma = tested on: SK-MEL-2 melanoma
HCT-116 colon = tested on: HCT-116 colon
SN12C renal = tested on: SN12C renal
A549 NSCLC = tested on: A549 NSCLC
HOP-62 NSCLC = tested on: HOP-62 NSCLC
TK-10 renal = tested on: TK-10 renal
COLO 205 colon = tested on: COLO 205 colon
MALME-3M melanoma = tested on: MALME-3M melanoma
CAKI-1 renal = tested on: CAKI-1 renal

| Structure (SMILES) | GI50 (MOLT-4 leukemia) | TGI (MOLT-4 leukemia) | GI50 (SK-MEL-2 melanoma) | TGI (SK-MEL-2 melanoma) | GI50 (HCT-116 colon) | TGI (HCT-116 colon) | GI50 (SN12C renal) | TGI (SN12C renal) | GI50 (A549 NSCLC) | TGI (A549 NSCLC) | GI50 (HOP-62 NSCLC) | TGI (HOP-62 NSCLC) | GI50 (TK-10 renal) | TGI (TK-10 renal) | GI50 (COLO 205 colon) | TGI (COLO 205 colon) | GI50 (MALME-3M melanoma) | TGI (MALME-3M melanoma) | GI50 (CAKI-1 renal) | TGI (CAKI-1 renal) |
| --- | --- | --- | --- | --- | --- | --- | --- | --- | --- | --- | --- | --- | --- | --- | --- | --- | --- | --- | --- | --- |
| CCC1=C(C)/C(=C/c2[nH]c(C)c(C(=O)CCCCC(=O)OC)c2C)N=C1c1ccc[nH]1 | 995 nM | 6.92 µM | 19400 nM | 46.2 µM | 7370 nM | > 50.1 µM | 22200 nM | > 100 µM | 20.4 µM | > 53.4 µM | 13.9 µM | 28.5 µM | 24.5 µM | 71.1 µM | 12600 nM | > 100 µM | 13.7 µM | 45.1 µM | 20600 nM | 45.8 µM |
| CC(C)(C)[OH+][O-].[O-]c1ccc(Cl)cc1C=Nc1ccc(Cl)cc1[O-].[O]=[V] | 17500 nM | > 100 µM | 11500 nM | 28.2 µM | 21400 nM | 98.9 µM | 24200 nM | > 100 µM | 17.1 µM | > 100 µM | 23.7 µM | 74.1 µM | 13.8 µM | 73.7 µM | 19300 nM | 37.6 µM | 1.81 µM | 11.9 µM | 15100 nM | 52.5 µM |
| CN/N=C(/Cc1occc(=O)c1O)C(=O)Nc1ccc(C)c(C)c1 |  | > 100 µM |  | > 100 µM |  | > 100 µM |  | > 100 µM |  | > 100 µM |  | > 100 µM |  | > 100 µM |  | > 100 µM |  | > 100 µM |  | > 100 µM |
| CCOC(=N)CC(=O)Nc1ccc(Cl)cc1 |  | > 100 µM |  | > 100 µM |  | > 100 µM |  | > 100 µM |  | > 100 µM |  | > 100 µM |  | > 100 µM |  | > 100 µM |  | > 100 µM |  | > 100 µM |
| CC(C)(C)NNC(=O)/C(=C/c1ccc(Oc2ccc(Cl)c(Cl)c2)cc1)NC(=O)c1ccccc1 |  | > 100 µM |  | > 100 µM |  | > 100 µM |  | > 100 µM |  | > 100 µM |  | > 100 µM |  | > 100 µM |  | 36.8 µM |  | > 100 µM |  | > 100 µM |
| C=C1C(=O)O[C@H]2[C@H]1CC/C(COC(=O)C(=O)c1c[nH]c3ccccc13)=C\CC[C@@]1(C)O[C@@H]21 | 2200 nM | 7.3 µM | 1630 nM | 3.78 µM | 1680 nM | 3.24 µM | 2720 nM | 7.11 µM | 2.27 µM | 6.08 µM | 1.72 µM | 4 µM | 1.38 µM | 2.81 µM | 1800 nM | 3.91 µM | 2.09 µM | 4.33 µM | 2970 nM | 13.5 µM |
| CC(C)(C)[Si](C)(C)OCC1CCC(n2cnc3c(NC(=O)c4ccccc4)ncnc32)O1 (centres undefined) |  | 39.6 µM |  | 45.6 µM |  | 33.5 µM |  | 34 µM |  | 39.9 µM |  | 38 µM |  | 38.6 µM |  | 35.6 µM |  | 34.3 µM |  | 46.9 µM |
| COc1ccc2[nH]cc(CCNC(C)=O)c2c1 |  | > 100 µM |  | > 100 µM |  | > 100 µM |  | > 100 µM |  | > 100 µM |  | > 100 µM |  | > 100 µM |  | 85.5 µM |  | > 100 µM |  | > 100 µM |
| COc1cc(/C=C(/C)[N+](=O)[O-])ccc1O | 3300 nM | 9.14 µM | 2150 nM and 1700 nM | 4.3 µM and 3.49 µM | 1650 nM and 1710 nM | 3.12 µM and 3.29 µM | 2200 nM and 2430 nM | 5.98 µM and 9.43 µM | 3.94 µM and 2.5 µM | 14.6 µM and 7.07 µM | 2.46 µM | 6.01 µM | 1.97 µM and 1.48 µM | 3.57 µM and 2.82 µM | 1990 nM and 1450 nM | 3.99 µM and 2.85 µM | 2 µM and 1.53 µM | 4.08 µM and 3.58 µM | 2170 nM and 1380 nM | 6.07 µM and 3.26 µM |
| CCCN1C(=O)C/C(=C\C(C)=O)Nc2ccccc21 |  | > 100 µM |  | > 100 µM |  | > 100 µM |  | > 100 µM |  | > 100 µM |  | > 100 µM |  | > 100 µM |  | > 100 µM |  | > 100 µM |  | > 100 µM |
| O=C(Cc1nc2ccccc2s1)C(=O)Nc1ccc(Cl)cc1 |  | > 100 µM |  | > 100 µM |  | > 100 µM |  | > 100 µM |  | > 100 µM |  | > 100 µM |  | > 100 µM |  | > 100 µM |  | > 100 µM |  | > 100 µM |
| CNc1ccccc1C(=O)N/N=C/C=C/c1ccccc1 | 1860 nM | > 100 µM | 733 nM | 78.2 µM | 499 nM | > 100 µM | 3220 nM | > 100 µM | 1.06 µM | > 100 µM | 6.9 µM | > 61.6 µM | 3.33 µM | > 100 µM | 671 nM | 10.3 µM | 9.91 µM | 97.4 µM | 2790 nM | > 100 µM |
| COC(=O)c1c[nH]cc1CCc1c[nH]cc1C(=O)OC |  | > 100 µM |  | > 100 µM |  | > 100 µM |  | > 100 µM |  | > 100 µM |  | > 100 µM |  | > 100 µM |  | > 100 µM |  | > 100 µM |  | > 100 µM |
| COc1ccc(C(=O)/C=C/c2ccc(O)c(O)c2F)c(OC)c1 | 259 nM | 75 µM and 11.6 µM |  | 13.4 µM and 13.6 µM | 2660 nM | 14 µM and 10 µM | 2420 nM | 18.6 µM and 11.9 µM | 8.62 µM | 75 µM and > 100 µM | 19.8 µM | 37.1 µM and > 100 µM | 7.64 µM | 28.5 µM and 23.4 µM | 12900 nM | 22.1 µM and 27.2 µM | 12 µM | 22.6 µM and 25.2 µM | 5730 nM | 75 µM and 44.9 µM |
| COC(=O)/C=C/c1cc(O)c2c(c1)C(C(=O)OC)C(c1ccc(O)c(O)c1)O2 (centres undefined) | 120 nM and 55.3 nM | 25.3 µM and 27.8 µM | 454 nM and 93 nM | 35.2 µM and > 55 µM | 104 nM and 40.5 nM | > 100 µM | 614 nM | > 100 µM | 4.95 µM and 1.11 µM | 61.9 µM and 23.7 µM | 0.493 µM and 0.137 µM | > 72.4 µM and 46.5 µM | 5.24 µM and 1.27 µM | 67.5 µM and > 23.5 µM | 4190 nM and 2490 nM | 29 µM and 12.3 µM | 12.5 µM and 17.7 µM | 62 µM and 86.1 µM | 644 nM and 393 nM | > 100 µM |
| Cc1cc2c(cc1C)NC(=O)C(NC(=O)/C=C/c1ccccc1)C=N2 (centres undefined) |  | 57.7 µM |  | 84.4 µM |  | 50.8 µM |  | > 100 µM |  | > 100 µM |  | > 100 µM |  | > 100 µM |  | 34.6 µM |  | > 100 µM |  | > 100 µM |
